US20120213860A1, “XENON-BASED INHALABLE DRUG FOR TREATING OR PREVENTING INDUCED DYSKINESIA” (L'Air Liquide Societe Anonyme Pour L'Etude Et …, priority 2009, published 2012)

System: dyskinesias induced by levodopa
Test: levodopa-induced abnormal involuntary movements (AIMs) in rats with unilateral 6-OHDA lesions (animal model of Parkinson's disease)
Assay type: in vivo, Sprague-Dawley rats
Description: More precisely, the effects of administering several gases as treatment of dyskinesias were evaluated in rats having lesions produced by unilateral injection of 6-OHDA (6-hydroxydopamine, a powerful neurotoxic) in an ascending nigrostriatal pathway (animal model of Parkinson's disease). In this model, long-term treatment of rats with levodopa induces abnormal involuntary movements (AIMs) that are similar to those in dyskinesias induced by levodopa in humans. The rats with lesions induced by 6-OHDA serving as the model of Parkinson's disease are prepared as follows. 16 Sprague-Dawley rats weighing between 250 and 300 g are kept in a room with controlled temperature (about 22° C.) with day/night cycles of 12 h, with free access to food and water. The animals receive, 30 min before the intervention, an intraperitoneal injection of pargyline (5 mg/kg; inhibitor of monoamine oxidase-B) and of desipramine (25 mg/kg; norepinephrine reuptake inhibitor). The animals are put in an anesthesia chamber with continuous flow of oxygen at 1.5 l/minute and 3% isoflurane. After anesthesia, the animals are placed in a stereotaxic frame. […] The injection site is localized according to the coordinates relative to bregma: −2.8 mm rostral, 2 mm lateral and 9 mm under the cranium (Paxinos and Watson, 1986). The rats are left to recover for 3 weeks after the lesions. The animals receive 0.05 mg/kg s.c. of apomorphine. […] The animals that remain receive an administration of 6 mg/kg of levodopa and 15 mg/kg of benzerazide (i.p.), twice a day, for 21 consecutive days. During these 21 days, the abnormal involuntary movements (AIMs) are assessed on days 1, 7, 14 and 21. The therapeutic treatments begin on day 22. They consist of administering the following to the rats by inhalation: • xenon/O2 gas mixtures (50%/50% by volume) as test gas according to the invention and; • N2/O2 gas mixtures (50%/50% by volume) as control. The gas mixtures are premixtures supplied by Air Liquide™. The gas concentrations are monitored continuously. Exposure to the gases is effected in a Plexiglas chamber with a length of 42 cm, and width and height of 26 cm. Each time, 4 or 5 rats are put in the chamber and inhale the test gas for 1 h. The chamber is supplied with fresh gas at a flow rate of 4 l/min. The abnormal involuntary movements (AIMs) are assessed for 180 min after injection of levodopa. More precisely, the animals are put in boxes (22 cm×34 cm×20 cm) and are left there for 15 minutes for them to become accustomed to their environment. Levodopa methyl ester (6 mg/kg, i.p.) is then administered at time intervals of 1 minute between rats. Each rat is observed for 1 minute at intervals of 30 minutes after injection and for a period of 180 min. Four subtypes of AIMs are assessed, namely: • Locomotor (Lo): increased movements contralateral to the lesion, • Hind limbs (Li): uncontrolled random movements of the hind limbs contralateral to the lesion, • Orolingual (Ol): excessive mastication and jaw movements with tongue protrusion, • Axial (Ax): dystonic postures or choreiform twisting of the neck and of the upper body contralaterally. The severity of the MIAs is scored from 1 to 4 according to the duration of the MIAs over an observation period of one minute: • 0.1=presence of MIAs for less than 30 s • 0.2=presence of MIAs for more than 30 s • 0.3=presence of MIAs during the minute with interruption by external stimuli • 0.4=presence of MIAs during the minute without interruption by external stimuli

[1] = parkinsonian rat, xenon/O2 50%/50% by volume inhaled 1 h, vs control N2/O2 50%/50%, amplitude and duration
[2] = parkinsonian rat, xenon/O2 50%/50% inhaled, vs control N2/O2

[Xe] [xenon]
appearance of the 4 types of dyskinesias (Lo, Li, Ol, Ax) (animals breathing xenon/O2 (50%/50% by volume), amplitude and duration): greatly reduced | axial dyskinesias (Ax), kinetics following administration of L-Dopa (FIG. 3A) [1]: clear decrease | hind limb dyskinesias (Li), kinetics following administration of L-Dopa (FIG. 4A) [1]: significant decrease | locomotor dyskinesias (Lo), kinetics following administration of L-Dopa (FIG. 6A) [1]: large decrease | orolingual dyskinesias (Ol), kinetics following administration of L-Dopa (FIG. 5A) [1]: clear decrease | mean value of hind limb dyskinesias (Li) from 60 to 180 min (FIG. 4B) [2]: fewer hind limb dyskinesias | mean value of locomotor dyskinesias from 60 to 180 min (FIG. 6B) [2]: fewer locomotor dyskinesias | mean value of orolingual dyskinesias (Ol) from 60 to 180 min (FIG. 5B) [2]: fewer orolingual dyskinesias | mean value of the axial dyskinesias from 60 to 180 min (FIG. 3B) [2]: fewer axial dyskinesias
